Results published in PMC8691691 (ACS Chemical Neuroscience, 2021).
Where a chain is given by its changes, count along the chain named. Read-outs that look alike come from different tables or passages of the source.

Tests used:
Test in all cases: [3H]glycine transport by GlyT2 mutant in COS7 cells
Assay type in all cases: cell-based
GlyT2 T580C mutant = target: T1, GlyT2 T580C mutant (Rattus norvegicus, UniProt P58295, T580C)
T1 construct: expressed in transfected cells; host or cells: COS7
T1 sequence (P58295 1-799 T580C): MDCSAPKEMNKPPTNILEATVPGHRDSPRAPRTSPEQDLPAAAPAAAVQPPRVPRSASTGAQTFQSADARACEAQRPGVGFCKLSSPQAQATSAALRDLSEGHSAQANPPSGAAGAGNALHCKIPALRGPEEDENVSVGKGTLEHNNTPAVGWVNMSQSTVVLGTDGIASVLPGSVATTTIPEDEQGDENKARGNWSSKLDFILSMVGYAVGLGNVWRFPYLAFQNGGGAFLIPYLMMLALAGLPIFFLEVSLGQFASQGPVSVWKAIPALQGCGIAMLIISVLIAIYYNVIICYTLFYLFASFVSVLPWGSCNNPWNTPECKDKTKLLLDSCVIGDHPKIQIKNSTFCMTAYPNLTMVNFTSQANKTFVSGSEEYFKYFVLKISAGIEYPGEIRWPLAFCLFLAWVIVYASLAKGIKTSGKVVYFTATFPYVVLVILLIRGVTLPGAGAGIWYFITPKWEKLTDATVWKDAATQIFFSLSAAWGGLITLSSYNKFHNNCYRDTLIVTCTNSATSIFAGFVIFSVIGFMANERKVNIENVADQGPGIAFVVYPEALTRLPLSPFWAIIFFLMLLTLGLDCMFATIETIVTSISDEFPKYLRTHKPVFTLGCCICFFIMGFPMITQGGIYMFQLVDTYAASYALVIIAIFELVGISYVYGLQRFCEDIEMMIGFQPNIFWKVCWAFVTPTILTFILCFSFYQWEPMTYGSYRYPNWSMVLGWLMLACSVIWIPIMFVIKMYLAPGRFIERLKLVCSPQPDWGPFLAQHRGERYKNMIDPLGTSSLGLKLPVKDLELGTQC
Excerpt: (§1) To validate the predicted interactions between the inhibitors and GlyT2, we used systematic site-directed mutagenesis to construct substitution mutants of the potential residues involved in ligand binding. […] The GlyT2 residues predicted to interact with the inhibitors through its side chain were replaced by amino acids expected to force the loss of the interaction. In the cases where the interaction occurred through the backbone, the inserted amino acid sought to alter the disposition of the substituted residue to lose the coordination.
(§2) Substitution mutants were generated with the QuikChange II Site-Directed Mutagenesis kit (Agilent Technologies, Santa Clara, CA, USA), using rGlyT2 or rGlyT1 subcloned in pCDNA3.[47] The complete coding region of all of the constructs was sequenced to verify that only the desired mutation had been introduced. […] COS7 cells were grown and transfected using Turbofect Transfection Reagent (Thermo Fisher Scientific, Waltham, MA, USA), following the manufacturer’s protocol (2 μL reagent/μg of DNA). Cells were incubated for 48 h at 37 °C until used.
(§3) At the end of the desired time (usually 10 min), reactions were washed and terminated by aspiration. […] A nonlinear curve fitting method was used to obtain IC50 values using Graphpad Prism software, version 6.0, Graphpad, San Diego, CA, USA.

GlyT2 L576I mutant = target: T2, GlyT2 L576I mutant (Rattus norvegicus, UniProt P58295, L576I); settings: for IC50: read-out: IC50 (Table S1)
T2 construct: expressed in transfected cells; host or cells: COS7
T2 sequence (P58295 1-799 L576I): T1 sequence (P58295 1-799 T580C) with L576I, C580T
Excerpt: as §1, §2, §3

GlyT2 I292C mutant = target: T3, GlyT2 I292C mutant (Rattus norvegicus, UniProt P58295, I292C)
T3 construct: expressed in transfected cells; host or cells: COS7
T3 sequence (P58295 1-799 I292C): T1 sequence (P58295 1-799 T580C) with I292C, C580T
Excerpt: as §1, §2, §3

Structure (SMILES)	IC50 (GlyT2 T580C mutant) [nM]	IC50 (GlyT2 L576I mutant) [nM]	IC50 (GlyT2 I292C mutant) [nM]	IC50 (GlyT2 T580C mutant; read-out: IC50 (Table S1)) [nM]	effect of mutation on inhibition of glycine transport (GlyT2 L576I mutant; L576I, 1 μM inhibitor, 25 μM glycine)	IC50 (GlyT2 I292C mutant; read-out: IC50 (Table S1)) [nM]
COc1cc(C(=O)NCC2(N(C)C)CCCC2)cc(OC)c1OCc1ccccc1 [ORG25543, N-[[1-(dimethylamino)cyclopentyl]methyl]-3,5-dimethoxy-4-(phenylmethoxy)benzamide]	96 ± 10	111 ± 15	24 ± 3			
N[C@@H](COC(c1cccc(F)c1)c1ccccc1OCc1ccccc1)C(=O)O (stereo partly shown) [ALX1393]		101 ± 22		84 ± 9	prevented the inhibition by ALX1393 to a greater extent than that of ORG25543	36 ± 4
